Reference: ChEMBL document CHEMBL1201862, “PubChem BioAssay data set” (2004)
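Values below derive from 48-hour exposures of cells grown in 96-well plates, with endpoints linearly interpolated between the two concentrations bracketing the appropriate inhibition level. The concentration for 50% growth inhibition is given as GI50.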 The source made the active and inactive calls. Rule as the data show it: active = GI50 up to about 1.1 µM and inactive = higher.

Legend:
Experiment in all cases: NCI anticancer screen, dose series, 48 h
[1] = tested on: OVCAR-8
[2] = tested on: SNB-19
[3] = tested on: COLO 205
[4] = tested on: A498
[5] = tested on: SNB-78
[6] = tested on: LOX IMVI
[7] = tested on: SF-295
[8] = tested on: A549
[9] = tested on: M14
[10] = tested on: RPMI-8226
[11] = tested on: SK-OV-3
[12] = tested on: OVCAR-4
[13] = tested on: NCI-H226
[14] = tested on: HOP-18
[15] = tested on: HCT-15
[16] = tested on: XF498
[17] = tested on: IGROV-1
[18] = tested on: 786-0
[19] = tested on: DMS-273
[20] = tested on: DMS-114
[21] = tested on: TK-10
[22] = tested on: MOLT-4
[23] = tested on: Malme-3M
[24] = tested on: SN12C
[25] = tested on: NCI-H460
[26] = tested on: CCRF-CEM
[27] = tested on: UACC-62
[28] = tested on: U-251
[29] = tested on: HT-29
[30] = tested on: UO-31
[31] = tested on: NCI-H522
[32] = tested on: CAKI-1
[33] = tested on: SK-MEL-2
[34] = tested on: NCI-H23
[35] = tested on: SK-MEL-5
[36] = tested on: HOP-92
[37] = tested on: HOP-62
[38] = tested on: UACC-257
[39] = tested on: HL-60
[40] = tested on: HCC 2998
[41] = tested on: LXFL 529
[42] = tested on: K562
[43] = tested on: SK-MEL-28
[44] = tested on: OVCAR-3
[45] = tested on: SW-620
[46] = tested on: OVCAR-5
[47] = tested on: EKVX
[48] = tested on: HCT-116
[49] = tested on: KM-20L2
[50] = tested on: SF-268
[51] = tested on: M19-MEL
[52] = tested on: SF-539
[53] = tested on: ACHN
[54] = tested on: DLD-1
[55] = tested on: KM12
[56] = tested on: MCF7
[57] = tested on: SNB-75
[58] = tested on: RXF 393
[59] = tested on: NCI/ADR-RES
[60] = tested on: SR

C=C1Oc2nc3ccccc3c(=O)n2C1(C)C
GI50 [1]: > 100 µM (inactive) | GI50 [2]: > 100 µM (inactive) | GI50 [3]: > 100 µM (inactive) | GI50 [4]: > 100 µM (inactive) | GI50 [5]: > 100 µM (inactive) | GI50 [6]: > 100 µM (inactive) | GI50 [7]: > 10 µM (inactive) | GI50 [8]: > 100 µM (inactive) | GI50 [9]: > 100 µM (inactive) | GI50 [10]: > 100 µM (inactive) | GI50 [11]: > 100 µM (inactive) | GI50 [12]: > 100 µM (inactive) | GI50 [13]: > 100 µM (inactive) | GI50 [14]: > 100 µM (inactive) | GI50 [15]: > 100 µM | GI50 [16]: > 100 µM (inactive) | GI50 [17]: > 100 µM (inactive) | GI50 [18]: > 100 µM (inactive) | GI50 [19]: > 100 µM (inactive) | GI50 [20]: > 100 µM (inactive) | GI50 [21]: > 100 µM (inactive) | GI50 [22]: > 100 µM (inactive) | GI50 [23]: > 100 µM (inactive) | GI50 [24]: > 100 µM (inactive) | GI50 [25]: > 100 µM (inactive) | GI50 [26]: > 100 µM (inactive) | GI50 [27]: > 100 µM (inactive) | GI50 [28]: > 100 µM (inactive) | GI50 [29]: > 100 µM (inactive) | GI50 [30]: > 100 µM (inactive) | GI50 [31]: > 100 µM (inactive) | GI50 [32]: > 100 µM (inactive) | GI50 [33]: > 100 µM (inactive) | GI50 [34]: > 100 µM (inactive) | GI50 [35]: > 100 µM (inactive) | GI50 [36]: > 100 µM (inactive) | GI50 [37]: > 100 µM (inactive) | GI50 [38]: > 100 µM (inactive) | GI50 [39]: > 100 µM (inactive) | GI50 [40]: > 100 µM (inactive) | GI50 [41]: > 100 µM (inactive) | GI50 [42]: > 100 µM (inactive) | GI50 [43]: > 100 µM (inactive) | GI50 [44]: > 10 µM (inactive) | GI50 [45]: > 100 µM (inactive) | GI50 [46]: > 100 µM (inactive) | GI50 [47]: > 100 µM (inactive) | GI50 [48]: > 100 µM (inactive) | GI50 [49]: > 100 µM (inactive) | GI50 [50]: > 100 µM (inactive) | GI50 [51]: > 100 µM (inactive) | GI50 [52]: > 100 µM (inactive) | GI50 [53]: > 100 µM (inactive) | GI50 [54]: > 100 µM (inactive) | GI50 [55]: > 10 µM (inactive)

C(=C/c1nc2ccccc2o1)/c1ccc2c(c1)OCO2
GI50 [1]: 29.7 µM (inactive) | GI50 [2]: 16.1 µM (inactive) | GI50 [3]: 40.7 µM (inactive) | GI50 [4]: 21.8 µM (inactive) | GI50 [5]: 25.7 µM (inactive) | GI50 [6]: 6.59 µM (inactive) | GI50 [7]: 8.04 µM (inactive) | GI50 [8]: 18.7 µM (inactive) | GI50 [56]: 14.5 µM (inactive) | GI50 [10]: 26.4 µM (inactive) | GI50 [11]: 27.2 µM (inactive) | GI50 [12]: 13.1 µM (inactive) | GI50 [13]: 18 µM (inactive) | GI50 [14]: 5.21 µM (inactive) | GI50 [15]: 8.18 µM | GI50 [16]: 20.5 µM (inactive) | GI50 [17]: 16.1 µM (inactive) | GI50 [19]: 4.56 µM (inactive) | GI50 [20]: 16.9 µM (inactive) | GI50 [22]: 45.7 µM (inactive) | GI50 [23]: 27.3 µM (inactive) | GI50 [24]: 58.6 µM (inactive) | GI50 [25]: 21.2 µM (inactive) | GI50 [26]: > 67.9 µM (inactive) | GI50 [27]: 2.62 µM (inactive) | GI50 [28]: 17.5 µM (inactive) | GI50 [29]: 12.8 µM (inactive) | GI50 [30]: 17 µM (inactive) | GI50 [31]: 7.74 µM (inactive) | GI50 [32]: 9.82 µM (inactive) | GI50 [33]: 8.34 µM (inactive) | GI50 [34]: 22.9 µM (inactive) | GI50 [35]: 8.41 µM (inactive) | GI50 [36]: 13.2 µM (inactive) | GI50 [37]: 16.2 µM (inactive) | GI50 [57]: 21.1 µM (inactive) | GI50 [38]: 12.7 µM (inactive) | GI50 [39]: 16.8 µM (inactive) | GI50 [40]: 6.32 µM (inactive) | GI50 [42]: 5.22 µM (inactive) | GI50 [58]: 14.7 µM (inactive) | GI50 [43]: 24.9 µM (inactive) | GI50 [44]: 12.1 µM (inactive) | GI50 [45]: 16.7 µM (inactive) | GI50 [46]: > 36.6 µM (inactive) | GI50 [47]: 55.5 µM (inactive) | GI50 [59]: 14.1 µM (inactive) | GI50 [48]: 12.3 µM (inactive) | GI50 [49]: 6.61 µM (inactive) | GI50 [50]: 19.8 µM (inactive) | GI50 [51]: 21.2 µM (inactive) | GI50 [52]: 16.6 µM (inactive) | GI50 [54]: 5.74 µM (inactive) | GI50 [55]: 4.91 µM (inactive)

CCOC(=O)CC1COc2ccc3c(c21)OCO3 (stereo not drawn)
GI50 [1]: > 100 µM (inactive) | GI50 [2]: > 100 µM (inactive) | GI50 [3]: > 100 µM (inactive) | GI50 [4]: > 100 µM (inactive) | GI50 [5]: > 100 µM (inactive) | GI50 [6]: > 100 µM (inactive) | GI50 [7]: > 100 µM (inactive) | GI50 [8]: > 100 µM (inactive) | GI50 [9]: > 100 µM (inactive) | GI50 [10]: > 100 µM (inactive) | GI50 [11]: > 100 µM (inactive) | GI50 [12]: > 100 µM (inactive) | GI50 [13]: > 100 µM (inactive) | GI50 [14]: > 100 µM (inactive) | GI50 [15]: > 100 µM | GI50 [16]: > 100 µM (inactive) | GI50 [17]: > 100 µM (inactive) | GI50 [18]: > 100 µM (inactive) | GI50 [19]: > 100 µM (inactive) | GI50 [20]: > 100 µM (inactive) | GI50 [21]: > 100 µM (inactive) | GI50 [22]: > 100 µM (inactive) | GI50 [23]: > 100 µM (inactive) | GI50 [24]: > 100 µM (inactive) | GI50 [25]: > 100 µM (inactive) | GI50 [26]: > 100 µM (inactive) | GI50 [27]: > 100 µM (inactive) | GI50 [28]: > 100 µM (inactive) | GI50 [29]: > 100 µM (inactive) | GI50 [30]: > 100 µM (inactive) | GI50 [33]: > 100 µM (inactive) | GI50 [34]: > 100 µM (inactive) | GI50 [35]: > 100 µM (inactive) | GI50 [36]: > 100 µM (inactive) | GI50 [37]: > 100 µM (inactive) | GI50 [57]: > 100 µM (inactive) | GI50 [38]: > 100 µM (inactive) | GI50 [39]: > 100 µM (inactive) | GI50 [40]: > 100 µM (inactive) | GI50 [41]: > 100 µM (inactive) | GI50 [42]: > 100 µM (inactive) | GI50 [60]: > 100 µM (inactive) | GI50 [43]: > 100 µM (inactive) | GI50 [44]: > 100 µM (inactive) | GI50 [45]: > 100 µM (inactive) | GI50 [46]: > 100 µM (inactive) | GI50 [47]: > 100 µM (inactive) | GI50 [48]: > 100 µM (inactive) | GI50 [49]: > 100 µM (inactive) | GI50 [51]: > 100 µM (inactive) | GI50 [52]: > 100 µM (inactive) | GI50 [53]: > 100 µM (inactive) | GI50 [54]: > 100 µM (inactive) | GI50 [55]: > 100 µM (inactive)
